Marks after values point to notes of the source that are not given here.
Columns and labels:
Toxicity (LD30) = details: in vivo
[1] = Metabolism and excretion in the organism; details: in vivo
[2] = tested on: rats with hemorrhagic stroke (intracerebral post-traumatic hematoma); assay: Hemorrhagic stroke model: burrow reflex; details: HS rats, one-time administration; 1 day after operation
Procedure: (§1) Experiments have been conducted on white outbred male rats having weights from 200 to 250 grams. The rats have been held in vivarium conditions with free access to meals and water, under the natural change of days and nights. For the purpose of generating hemorrhagic stroke (HS) in rats narcotized with chloral hydrate (400 mg/Kg) stereotaxic craniotomy was conducted and then brain tissue in the capsula interna area was destructed with a mandarin knife, and blood (0.02 to 0.03 mL) taken under a rat tongue was injected into the place of destruction. Thus, local autohemorrhagic bilateral stroke was generated in the capsula interna area (diameter 2 mm, depth 3 mm) without damaging the above-located brain formations and neocortex. Falsely operated animals and animals with HS fed with a saline were used as the control animals. […]
The Phenotropil influence was evaluated for survivability of the animals, for the neurologic deficit level on the McGrow stroke-index scale in the modification of I. V. Gannushkina (1977) and in the Rotarod test, for muscular tonus maintenance in the test of chinning up on a horizontal bar, for orientation and exploration behavior in the open-field test. […] The latent time of the first entering in a dark chamber was registered when the burrow reflex maintenance was evaluated. […]

[3] = tested on: rats with hemorrhagic stroke (intracerebral post-traumatic hematoma); assay: Hemorrhagic stroke model: survivability of animals
Procedure: as §1
The Phenotropil influence was evaluated for survivability of the animals, for the neurologic deficit level on the McGrow stroke-index scale in the modification of I. V. Gannushkina (1977) and in the Rotarod test, for muscular tonus maintenance in the test of chinning up on a horizontal bar, for orientation and exploration behavior in the open-field test. […] The latent time of the first entering in a dark chamber was registered when the burrow reflex maintenance was evaluated.

[4] = tested on: rats with hemorrhagic stroke (intracerebral post-traumatic hematoma); assay: Hemorrhagic stroke model: neurologic deficit on McGrow's scale; details: HS rats, 100 mg/Kg internally; 1 day after operation
Procedure: (§2) Experiments have been conducted on white outbred male rats having weights from 200 to 250 grams. The rats have been held in vivarium conditions with free access to meals and water, under the natural change of days and nights. For the purpose of generating hemorrhagic stroke (HS) in rats narcotized with chloral hydrate (400 mg/Kg) stereotaxic craniotomy was conducted and then brain tissue in the capsula interna area was destructed with a mandarin knife, and blood (0.02 to 0.03 mL) taken under a rat tongue was injected into the place of destruction. Thus, local autohemorrhagic bilateral stroke was generated in the capsula interna area (diameter 2 mm, depth 3 mm) without damaging the above-located brain formations and neocortex. Falsely operated animals and animals with HS fed with a saline were used as the control animals. Intragastric administration of Phenotropil at a dose of 100 mg/Kg was performed with the use of a special tube in 5 hours after the operation and then daily for 7 days at the time of the day±3 minutes.
(§3) The Phenotropil influence was evaluated for survivability of the animals, for the neurologic deficit level on the McGrow stroke-index scale in the modification of I. V. Gannushkina (1977) and in the Rotarod test, for muscular tonus maintenance in the test of chinning up on a horizontal bar, for orientation and exploration behavior in the open-field test. Study of cognitive functions was conducted on a standard unit for conditioned reflex of passive avoidance (CRPA). A test for CRPA repetition (for maintenance of a memory trail) was conducted in 24 hours after training as well as on the 3rd, 7th and 14th days after the operation. The latent time of the first entering in a dark chamber was registered when the burrow reflex maintenance was evaluated.

[5] = tested on: rats with hemorrhagic stroke (intracerebral post-traumatic hematoma); assay: Hemorrhagic stroke model: conditioned reflex of passive avoidance (CRPA); details: for Latent time of entering into a dark chamber / Number of rats which did not entered a dark chamber: HS rats, 100 mg/Kg
Procedure: as §2, §3

[6] = tested on: rats with hemorrhagic stroke (intracerebral post-traumatic hematoma); assay: Hemorrhagic stroke model: open-field orientation-and-exploratory behavior; details: for Exploration of holes / Horizontal motion activity / Total index / Vertical motion activity: HS + Phenotropil
Procedure: as §2, §3

[7] = repetition of the CRPA in 3 days
[8] = repetition of the CRPA in 7 days
[9] = repetition of the CRPA in 14 days

In the case of NC(=O)CN1CC(c2ccccc2)CC1=O (centres unmarked) [Phenotropil, N-carbomoyl-methyl-4-phenyl-2-pyrrolidon], the LD30 (Toxicity (LD30)) is reported as 800 mg/kg, the “Metabolism in the organism” value [1] is reported as “not metabolized in the organism and goes out of it in the unchanged form” and the “Latent time of entering into a dark chamber during training in the burrow reflex” value [2] is reported as 30.6 ± 8.8. For the same compound, the “Effect on death of the animals” value ([3]; 100 mg/Kg once a day for 7 days, 14 days of observation) was “completely prevented death of the animals”, the “Cases in which death of animals was prevented” value ([3]; hemorrhagic stroke, 100 mg/Kg) was 100% and the “Number of animals with flabbiness, slowness of motions” value [4] was 50%. For the same compound, the “Number of animals with paresis of 1-4 limbs” value [4] was 30%, the “Number of animals with weakness of limbs” value [4] was 40* % and the “Increase of the latent time of entering the dark chamber in comparison to the HS-group” value ([5]; 100 mg/Kg one-time administration 5 hours after operation, CRPA one day after training) was 48%. For the same compound, the “Increase of the number of animals with maintained memory in comparison to the HS-group” value ([5]; 100 mg/Kg one-time administration 5 hours after operation, after one day) was 60%, the “Latent time of entering into a dark chamber” value ([5]; repetition of the CRPA in 24 hours after training) was 101.1 ± 24.2 s and the “Number of rats which did not entered a dark chamber” value ([5]; repetition of the CRPA in 24 hours after training, 100 mg/kg) was 40%. The “Latent time of entering into a dark chamber” value [5, 7] was 98.3 ± 18.7 s, the “Number of rats which did not entered a dark chamber” value [5, 7] was 40** % and the “Latent time of entering into a dark chamber” value [5, 8] was 75.2 ± 24.1 s. The “Number of rats which did not entered a dark chamber” value [5, 8] was 30** %, the “Latent time of entering into a dark chamber” value [5, 9] was 83.2 ± 26.7 s and the “Number of rats which did not entered a dark chamber” value [5, 9] was 40** %. For the same compound, the Exploration of holes ([6]; 1st day after operation) was 1.3 ± 0.5, the Horizontal motion activity ([6]; 1st day after operation) was 8.8 ± 3.5 and the Total index ([6]; 1st day after operation) was 14.5 ± 5.5. It also gave a Vertical motion activity ([6]; 1st day after operation) of 4.4 ± 2.1, an Exploration of holes ([6]; 3rd day after operation) of 1.9 ± 0.7 and a Horizontal motion activity ([6]; 3rd day after operation) of 15.2 ± 5.4. It also gave a Total index ([6]; 3rd day after operation) of 21.6 ± 6.1, a Vertical motion activity ([6]; 3rd day after operation) of 4.5 ± 1.5 and an Exploration of holes ([6]; 7th day after operation) of 4.6 ± 1.3. It also gave a Horizontal motion activity ([6]; 7th day after operation) of 20.9 ± 4.1, a Total index ([6]; 7th day after operation) of 36.4 ± 5.6 and a Vertical motion activity ([6]; 7th day after operation) of 10.9 ± 3.2. For the same compound, the Exploration of holes ([6]; 14th day after operation) was 3.0 ± 0.7, the Horizontal motion activity ([6]; 14th day after operation) was 12.2 ± 2.8 and the Total index ([6]; 14th day after operation) was 22.1 ± 3.5. The Vertical motion activity ([6]; 14th day after operation) was 6.9 ± 1.9 and the “Increase of total index of motion behavior compared to rats of the HS group” value ([6]; registered in 7 days) was 2.7 times.

Reference: patent US20090291999A1, “Agent Exhibiting a Neurotropic, Neuromodulator, Cerebrovascular and Anti-Stroke Activity” (AKHAPKINA, Valentina Ivanovna, priority 2006, published 2009)
